Source: the CheMixHub viscosity set

Assay: xn = mol fraction of the nth substance listed

CCCCN + CCCCO
Details	viscosity [mPa·s]
293.15 K, 101 kPa, x1 = 0.1	2.51
293.15 K, 101 kPa, x1 = 0.3	1.85
293.15 K, 101 kPa, x1 = 0.5	1.25
293.15 K, 101 kPa, x1 = 0.7	0.95
293.15 K, 101 kPa, x1 = 0.9	0.68
298.15 K, 100 kPa, x2 = 0.099	0.553
298.15 K, 100 kPa, x2 = 0.195	0.663
298.15 K, 100 kPa, x2 = 0.294	0.794
298.15 K, 100 kPa, x2 = 0.401	0.951
298.15 K, 100 kPa, x2 = 0.493	1.101
298.15 K, 100 kPa, x2 = 0.6	1.312
298.15 K, 100 kPa, x2 = 0.695	1.531
298.15 K, 100 kPa, x2 = 0.8	1.818
298.15 K, 100 kPa, x2 = 0.893	2.131
298.15 K, 101.32 kPa, x2 = 0.0983	0.5497
298.15 K, 101.32 kPa, x2 = 0.1986	0.6488
298.15 K, 101.32 kPa, x2 = 0.2972	0.7685
298.15 K, 101.32 kPa, x2 = 0.4004	0.9222
298.15 K, 101.32 kPa, x2 = 0.4976	1.085
298.15 K, 101.32 kPa, x2 = 0.5988	1.291
298.15 K, 101.32 kPa, x2 = 0.7009	1.518
298.15 K, 101.32 kPa, x2 = 0.7974	1.782
298.15 K, 101.32 kPa, x2 = 0.899	2.123
303.15 K, 101 kPa, x1 = 0.01068	2.228
303.15 K, 101 kPa, x1 = 0.02055	2.205
303.15 K, 101 kPa, x1 = 0.0277	2.185
303.15 K, 101 kPa, x1 = 0.04127	2.155
303.15 K, 101 kPa, x1 = 0.05004	2.135
303.15 K, 101 kPa, x1 = 0.05896	2.116
303.15 K, 101 kPa, x1 = 0.07244	2.087
303.15 K, 101 kPa, x1 = 0.08331	2.059
303.15 K, 101 kPa, x1 = 0.09019	2.04
303.15 K, 101.33 kPa, x1 = 0.092	2.08
303.15 K, 101.33 kPa, x1 = 0.1008	1.909
303.15 K, 101.33 kPa, x1 = 0.1886	1.829
303.15 K, 101.33 kPa, x1 = 0.2007	1.627
303.15 K, 101.33 kPa, x1 = 0.2824	1.565
303.15 K, 101.33 kPa, x1 = 0.3004	1.395
303.15 K, 101.33 kPa, x1 = 0.3824	1.314
303.15 K, 101.33 kPa, x1 = 0.4	1.191
303.15 K, 101.33 kPa, x1 = 0.5009	1.019
303.15 K, 101.33 kPa, x1 = 0.5186	1.036
303.15 K, 101.33 kPa, x1 = 0.6001	0.869
303.15 K, 101.33 kPa, x1 = 0.6186	0.8627
303.15 K, 101.33 kPa, x1 = 0.6997	0.734
303.15 K, 101.33 kPa, x1 = 0.7158	0.7221
303.15 K, 101.33 kPa, x1 = 0.7999	0.625
303.15 K, 101.33 kPa, x1 = 0.8131	0.6087
303.15 K, 101.33 kPa, x1 = 0.9001	0.536
303.15 K, 101.33 kPa, x1 = 0.9011	0.5224
313.15 K, 101.3 kPa, x2 = 0.0992	0.4434
313.15 K, 101.3 kPa, x2 = 0.1967	0.516
313.15 K, 101.3 kPa, x2 = 0.2981	0.602
313.15 K, 101.3 kPa, x2 = 0.398	0.7038
313.15 K, 101.3 kPa, x2 = 0.4956	0.8181
313.15 K, 101.3 kPa, x2 = 0.5979	0.9549
313.15 K, 101.3 kPa, x2 = 0.6978	1.108
313.15 K, 101.3 kPa, x2 = 0.8009	1.289
313.15 K, 101.3 kPa, x2 = 0.9	1.503
313.15 K, 101.33 kPa, x1 = 0.092	1.662
313.15 K, 101.33 kPa, x1 = 0.1008	1.518
313.15 K, 101.33 kPa, x1 = 0.1886	1.476
313.15 K, 101.33 kPa, x1 = 0.2007	1.305
313.15 K, 101.33 kPa, x1 = 0.2824	1.286
313.15 K, 101.33 kPa, x1 = 0.3004	1.12
313.15 K, 101.33 kPa, x1 = 0.3824	1.086
313.15 K, 101.33 kPa, x1 = 0.4	0.976
313.15 K, 101.33 kPa, x1 = 0.5009	0.843
313.15 K, 101.33 kPa, x1 = 0.5186	0.856
313.15 K, 101.33 kPa, x1 = 0.6001	0.73
313.15 K, 101.33 kPa, x1 = 0.6186	0.7186
313.15 K, 101.33 kPa, x1 = 0.6997	0.622
313.15 K, 101.33 kPa, x1 = 0.7158	0.6085
313.15 K, 101.33 kPa, x1 = 0.7999	0.539
313.15 K, 101.33 kPa, x1 = 0.8131	0.5227
313.15 K, 101.33 kPa, x1 = 0.9001	0.47
313.15 K, 101.33 kPa, x1 = 0.9011	0.4542
323.15 K, 101.33 kPa, x1 = 0.1008	1.228
323.15 K, 101.33 kPa, x1 = 0.2007	1.065
323.15 K, 101.33 kPa, x1 = 0.3004	0.92
323.15 K, 101.33 kPa, x1 = 0.4	0.803
323.15 K, 101.33 kPa, x1 = 0.5009	0.7
323.15 K, 101.33 kPa, x1 = 0.6001	0.615
323.15 K, 101.33 kPa, x1 = 0.6997	0.534
323.15 K, 101.33 kPa, x1 = 0.7999	0.467
323.15 K, 101.33 kPa, x1 = 0.9001	0.407

O=C([O-])c1ccccc1O.[Na+] + O
viscosity [mPa·s]
Details	293.15 K	298.15 K	303.15 K	308.15 K	313.15 K	318.15 K
100 kPa, x1 = 5.685e-05	1.003	0.8913	0.7982	0.7198	0.6537	–
100 kPa, x1 = 0.0001129	1.006	0.8924	0.7983	0.7207	0.6543	–
100 kPa, x1 = 0.0004518	1.013	0.8989	0.8049	0.7259	0.659	–
100 kPa, x1 = 0.0009067	1.024	0.9079	0.8132	0.7334	0.6657	–
100 kPa, x1 = 0.001366	1.037	0.9164	0.8198	0.7394	0.6711	–
100 kPa, x1 = 0.001826	1.045	0.9259	0.8289	0.748	0.6781	–
100 kPa, x1 = 0.002292	1.056	0.9367	0.8375	0.7552	0.6844	–
100 kPa, x1 = 0.00276	1.067	0.9449	0.8458	0.7614	0.6908	–
100 kPa, x1 = 0.003231	1.076	0.9506	0.8501	0.7666	0.6959	–
101 kPa, x1 = 0.000472	1.014	0.9009	–	–	–	–
101 kPa, x1 = 0.000925	1.025	0.9102	–	–	–	–
101 kPa, x1 = 0.001	1.025	0.9152	0.8184	0.7362	0.6684	0.6111
101 kPa, x1 = 0.00135	1.036	0.9188	–	–	–	–
101 kPa, x1 = 0.0018	1.046	0.9279	–	–	–	–
101 kPa, x1 = 0.002	1.05	0.9359	0.8392	0.7538	0.6817	0.6235
101 kPa, x1 = 0.00224	1.057	0.937	–	–	–	–
101 kPa, x1 = 0.002288	–	0.946	0.842	0.757	0.684	–
101 kPa, x1 = 0.002647	1.067	0.9454	–	–	–	–
101 kPa, x1 = 0.003578	1.089	–	–	–	–	–
101 kPa, x1 = 0.004685	–	0.983	0.875	0.786	0.714	–
101 kPa, x1 = 0.005317	1.131	–	–	–	–	–
101 kPa, x1 = 0.007012	1.171	–	–	–	–	–
101 kPa, x1 = 0.009424	–	1.083	0.963	0.863	0.781	–
101 kPa, x1 = 0.01337	–	1.188	1.055	0.944	0.846	–
101 kPa, x1 = 0.01919	–	1.354	1.195	1.063	0.95	–
101 kPa, x1 = 0.02192	–	1.44	1.265	1.125	1.008	–
101 kPa, x1 = 0.02737	–	1.628	1.423	1.261	1.132	–
